Reference: the NIST ThermoML archive (doi:10.1021/je049609w)
Several values for one entry are separate records, joined by “and”; a condition that tells them apart may be missing. Identical values can stand only once. ± gives the expanded uncertainty stated by the source.

Experiments:
[1] = 101 kPa, Liquid
[2] = refractive index (Na D-line) (dimensionless); settings: 101.33 kPa, Liquid

| SMILES | mass density ([1]; 298.15 K) [kg/m3] | speed of sound ([1]; 298.15 K) [m/s] | viscosity ([1]; 298.15 K) | mass density ([1]; 303.15 K) [kg/m3] | viscosity ([1]; 303.15 K) | mass density ([1]; 308.15 K) [kg/m3] | viscosity ([1]; 308.15 K) [mPa·s] | refractive index ([2]; 298.15 K) | refractive index ([2]; 303.15 K) | refractive index ([2]; 308.15 K) |
| --- | --- | --- | --- | --- | --- | --- | --- | --- | --- | --- |
| C1COCCO1 [1,4-dioxane] | 1028.6 ± 1.4 | 1345 ± 7 | 1.196 ± 0.038 mPa·s and 1.195 ± 0.038 mPa·s | 1022.9 ± 1.5 | 1.102 ± 0.035 mPa·s and 1.095 ± 0.035 mPa·s | 1017.2 ± 1.5 | 1.008 ± 0.032 | 1.4203 ± 0.0024 | 1.4164 ± 0.0024 | 1.4145 ± 0.0024 |
| OCCCl [1-chloro-2-hydroxyethane] | 1200.9 ± 1.7 | 1358 ± 8 | 3.104 ± 0.091 mPa·s | 1192.5 ± 1.7 | 2.669 ± 0.079 mPa·s | 1187.1 ± 1.8 | 2.347 ± 0.07 | 1.4411 ± 0.0024 | 1.438 ± 0.0024 | 1.4326 ± 0.0024 |
| CC(=O)N(C)C [N,N-dimethylethanamide] | 946.8 ± 1.2 | 1458 ± 8 | 1.261 ± 0.039 mPa·s | 942.1 ± 1.2 | 1.154 ± 0.036 mPa·s | 937.5 ± 1.3 | 1.047 ± 0.033 | 1.4363 ± 0.0024 | 1.4342 ± 0.0024 | 1.432 ± 0.0024 |
| CCCCO [butan-1-ol] | 805.8 ± 1 | 1237 ± 7 | 2.564 ± 0.076 mPa·s | 802 ± 1.1 | 2.245 ± 0.067 mPa·s | 798 ± 1.1 | 1.981 ± 0.06 | 1.3983 ± 0.0024 | 1.3955 ± 0.0024 | 1.3937 ± 0.0024 |
| CCOC(=O)CC(=O)OCC [diethyl 1,3-propanedioate] | 1049.6 ± 1.4 | 1304 ± 7 | 1.941 ± 0.059 mPa·s | 1044.2 ± 1.5 | 1.755 ± 0.053 mPa·s | 1038.8 ± 1.5 | 1.602 ± 0.049 | 1.4132 ± 0.0024 | 1.4108 ± 0.0024 | 1.4085 ± 0.0024 |
| CCOC(C)=O [ethyl acetate] | 894.2 ± 1.2 | 1155 ± 7 | 0.438 ± 0.016 mPa·s | 887.9 ± 1.2 | 0.414 ± 0.016 mPa·s | 881.6 ± 1.3 | 0.392 ± 0.015 | 1.3713 ± 0.0024 | 1.3673 ± 0.0024 | 1.3631 ± 0.0024 |
| ClC=C(Cl)Cl [trichloroethene] | 1455.4 ± 2.5 | 1027 ± 6 | 0.573 ± 0.021 mPa·s | 1447 ± 2.5 | 0.547 ± 0.02 mPa·s | 1438.5 ± 2.5 | 0.521 ± 0.019 | 1.476 ± 0.0024 | 1.4729 ± 0.0024 | 1.4698 ± 0.0024 |
